The text below walks through data of US5840697A, “Peptide inhibitors of calmodulin” (Torrey Pines Institute for Molecular Studies, priority 1996, dated 1998).

The target in the test is calmodulin (Homo sapiens, UniProt P0DP23). As to the kind of experiment: calcium-dependent phosphodiesterase assay (calmodulin activity). The class given is biochemical. The method, then:
In the calcium dependent phosphodiesterase assay, calmodulin can be assayed by its ability to stimulate phosphodiesterase activity as determined by a two-step assay procedure illustrated by reactions (1) and (2) below. [drawing 1]
During the first step of the assay cyclic adenosine 3'5'-monophosphate (cAMP) is incubated with calcium-activated phosphodiesterase (Cal-PDE), which hydrolyses the 3'bond producing adenosine 5'-monophosphate (5'-AMP). During the second step, 5'-AMP is quantitatively converted into adenosine and inorganic phosphate (Pi) through the action of a 5-nucleotidase. The reaction is followed by the measurement of the Pi formed by reading the absorbance at 660 nm after reacting with ammonium molybdate. The amount of Pi formed is directly related to the phosphodiesterase activity which depends on the level of activation by calmodulin.
To sample assay tubes were added the following components: assay buffer, 25 ul; CaCl2, 5 ul; 5'-nucleotidase, 7.5 ul (stock solution is 10 units/ml); calmodulin 5 units; calmodulin inhibitor peptides to obtain the desired final concentration of 50 μM. The volume was then made up to 200 ul with water. Control blanks were prepared replacing the peptides with water. The added components were thoroughly mixed and the tubes incubated at 30° C. for 10 min. […] The samples were centrifuged to remove the protein precipitate and the 50 ul of the supernatant was withdrawn for phosphate measurement. […] The absorbance of the solution were read at 660 nm using water as a blank, identified as control "Calmo."
The two controls used in the assay, one without and one with calmodulin, as indicated in FIG. 1 and Table I were as follows,: (1) PDE:
These three controls were used in the calcium-dependent phosphodiesterase assay for reproducibility of the assay.
In addition to the calcium-dependent phosphodiesterase assay data, IC50 values were determined for many of the peptides. The assay carried out for the determination in the IC50 values differed from the above screening assay by the concentration of the peptides being tested.
(3) TFP: trifluoperazine; and (4) Calmidasolium: (1-[bis-(4-chlorophenyl)methyl]-3[-2-(2,4-dichlorophenyl)-2[(2,4-dichlorophenyl)methoxy]-ethyl]-1H-imidazolium chloride. The IC50 values were calculated using sigmoidal curve software (Graphpad, ISI; San Diego, Calif.) using the % inhibition at different mixture concentrations (see protocol for determination of % inhibition).
The (L)-amino acid counterpart for five (5) of the all (D)-amino acid peptides identified from the PS-SCL were synthesized in order to study the stereoselectivity of the inhibition.

Where [1] appears, read: Table I, assayed at 75, 50 and 12.5 μM, average of repeated assays, read-out: Average IC50.

Each structure is given as a SMILES string. Like-named read-outs stand apart in the source and are kept apart here. Square brackets hold non-standard residues; d marks the D form. Peptide text beside a SMILES is read from it.

Turning to `CC[C@@H](C)[C@@H](NC(=O)[C@@H](Cc1c[nH]c2ccccc12)NC(=O)[C@@H](CC(C)C)NC(C)=O)C(=O)N[C@@H](C(=O)N[C@H](Cc1c[nH]cn1)C(=O)N[C@H](CCCNC(=N)N)C(N)=O)[C@H](C)CC` [Ac-(D)Leu-(D)Trp-(D)Ile-(D)Ile-(D)His-(D)Arg-NH2] (Ac-[dL][dW][dI][dI][dH][dR]-NH2), under setting [1], the IC50 (usually the concentration at which inhibition is half-maximal) came out at 5.1 µM. On the same count and under the same terms, the result for `CC[C@@H](C)[C@@H](NC(=O)[C@@H](CCC(N)=O)NC(=O)[C@@H](CC(C)C)NC(C)=O)C(=O)N[C@@H](C(=O)N[C@H](Cc1c[nH]cn1)C(=O)N[C@H](CCCNC(=N)N)C(N)=O)[C@H](C)CC` [Ac-(D)Leu-(D)Gln-(D)Ile-(D)Ile-(D)His-(D)Arg-NH2] (Ac-[dL][dQ][dI][dI][dH][dR]-NH2) reads 35 µM; that for `CC(=O)N[C@H](CC(C)C)C(=O)N[C@H](CCC(N)=O)C(=O)N[C@H](CCCNC(=N)N)C(=O)N[C@H](Cc1c[nH]cn1)C(=O)N[C@H](CC(C)C)C(=O)N[C@H](CCCNC(=N)N)C(N)=O` [Ac-(D)Leu-(D)Gln-(D)Arg-(D)His-(D)Leu-(D)Arg-NH2] (Ac-[dL][dQ][dR][dH][dL][dR]-NH2), 25 µM. As to `CC[C@@H](C)[C@@H](NC(=O)[C@@H](CCCNC(=N)N)NC(=O)[C@@H](CCC(N)=O)NC(=O)[C@@H](CC(C)C)NC(C)=O)C(=O)N[C@H](Cc1c[nH]cn1)C(=O)N[C@H](CCCNC(=N)N)C(N)=O` [Ac-(D)Leu-(D)Gln-(D)Arg-(D)Ile-(D)His-(D)Arg-NH2] (Ac-[dL][dQ][dR][dI][dH][dR]-NH2), the IC50 under setting [1] was found to be 26 µM. Still for that read-out and setting: the result for `CC[C@@H](C)[C@@H](NC(=O)[C@@H](CCCNC(=N)N)NC(=O)[C@@H](CCC(N)=O)NC(=O)[C@@H](CC(C)C)NC(C)=O)C(=O)N[C@H](CC(C)C)C(=O)N[C@H](CCCNC(=N)N)C(N)=O` [Ac-(D)Leu-(D)Gln-(D)Arg-(D)Ile-(D)Leu-(D)Arg-NH2] (Ac-[dL][dQ][dR][dI][dL][dR]-NH2) reads 35 µM; that for `CC[C@@H](C)[C@@H](NC(=O)[C@@H](Cc1c[nH]c2ccccc12)NC(=O)[C@@H](CC(C)C)NC(C)=O)C(=O)N[C@@H](C(=O)N[C@H](Cc1c[nH]cn1)C(=O)N[C@H](Cc1c[nH]c2ccccc12)C(N)=O)[C@H](C)CC` [Ac-(D)Leu-(D)Trp-(D)Ile-(D)Ile-(D)His-(D)Trp-NH2] (Ac-[dL][dW][dI][dI][dH][dW]-NH2), 8.6 µM; that for `CC[C@@H](C)[C@@H](NC(=O)[C@@H](CCCNC(=N)N)NC(=O)[C@@H](CCC(N)=O)NC(=O)[C@@H](CC(C)C)NC(C)=O)C(=O)N[C@H](CC(C)C)C(=O)N[C@H](Cc1c[nH]c2ccccc12)C(N)=O` [Ac-(D)Leu-(D)Gln-(D)Arg-(D)Ile-(D)Leu-(D)Trp-NH2] (Ac-[dL][dQ][dR][dI][dL][dW]-NH2), 24 µM. Same read-out and setting: the result for `CC(=O)N[C@H](CC(C)C)C(=O)N[C@H](CCC(N)=O)C(=O)N[C@H](CCCNC(=N)N)C(=O)N[C@H](Cc1c[nH]cn1)C(=O)N[C@H](CC(C)C)C(=O)N[C@H](Cc1c[nH]c2ccccc12)C(N)=O` [Ac-(D)Leu-(D)Gln-(D)Arg-(D)His-(D)Leu-(D)Trp-NH2] (Ac-[dL][dQ][dR][dH][dL][dW]-NH2) reads 20 µM. For `CC[C@@H](C)[C@@H](NC(=O)[C@@H](Cc1c[nH]c2ccccc12)NC(=O)[C@@H](CC(C)C)NC(C)=O)C(=O)N[C@H](Cc1c[nH]cn1)C(=O)N[C@H](Cc1c[nH]cn1)C(=O)N[C@H](CCCNC(=N)N)C(N)=O` [Ac-(D)Leu-(D)Trp-(D)Ile-(D)His-(D)His-(D)Arg-NH2] (Ac-[dL][dW][dI][dH][dH][dR]-NH2), the inhibition (as a rule, the relative decrease from the control value, in per cent) at 50 µM (50 μM peptide, PDE without calmodulin = 100%, calmodulin without peptide = 0%) was determined as 79%. For the same compound, the IC50 under setting [1] is 20 µM. With `CC[C@H](C)[C@H](NC(=O)[C@H](CCC(N)=O)NC(=O)[C@H](CC(C)C)NC(C)=O)C(=O)N[C@@H](Cc1c[nH]cn1)C(=O)N[C@@H](CC(C)C)C(=O)N[C@@H](CCCNC(=N)N)C(N)=O` [Ac-Leu-Gln-Ile-His-Leu-Arg-NH2] (Ac-LQIHLR-NH2), the IC50 (Table II, (L)-amino acid peptides, concentrations 0.2 to 50.0 μM, read-out: IC50) is 87 µM. With `CC[C@@H](C)[C@@H](NC(=O)[C@@H](CCCNC(=N)N)NC(=O)[C@@H](CCC(N)=O)NC(=O)[C@@H](CC(C)C)NC(C)=O)C(=O)N[C@H](Cc1c[nH]cn1)C(=O)N[C@H](Cc1c[nH]c2ccccc12)C(N)=O` [Ac-(D)Leu-(D)Gln-(D)Arg-(D)Ile-(D)His-(D)Trp-NH2] (Ac-[dL][dQ][dR][dI][dH][dW]-NH2), the IC50 under setting [1] stood at 19 µM. Still for that read-out and setting: the result for `CC(=O)N[C@H](CC(C)C)C(=O)N[C@H](CCC(N)=O)C(=O)N[C@H](CCCNC(=N)N)C(=O)N[C@H](Cc1c[nH]cn1)C(=O)N[C@H](Cc1c[nH]cn1)C(=O)N[C@H](Cc1c[nH]c2ccccc12)C(N)=O` [Ac-(D)Leu-(D)Gln-(D)Arg-(D)His-(D)His-(D)Trp-NH2] (Ac-[dL][dQ][dR][dH][dH][dW]-NH2) reads 25 µM; that for `CC[C@@H](C)[C@@H](NC(=O)[C@@H](CCC(N)=O)NC(=O)[C@@H](CC(C)C)NC(C)=O)C(=O)N[C@@H](C(=O)N[C@H](Cc1c[nH]cn1)C(=O)N[C@H](Cc1c[nH]c2ccccc12)C(N)=O)[C@H](C)CC` [Ac-(D)Leu-(D)Gln-(D)Ile-(D)Ile-(D)His-(D)Trp-NH2] (Ac-[dL][dQ][dI][dI][dH][dW]-NH2), 17 µM. With `CC(=O)N[C@H](CC(C)C)C(=O)N[C@H](Cc1c[nH]c2ccccc12)C(=O)N[C@H](CCCNC(=N)N)C(=O)N[C@H](Cc1c[nH]cn1)C(=O)N[C@H](Cc1c[nH]cn1)C(=O)N[C@H](CCCNC(=N)N)C(N)=O` [Ac-(D)Leu-(D)Trp-(D)Arg-(D)His-(D)His-(D)Arg-NH2] (Ac-[dL][dW][dR][dH][dH][dR]-NH2), the IC50 under setting [1] worked out at 8.1 µM. Turning to `CC(=O)N[C@H](CC(C)C)C(=O)N[C@H](CCC(N)=O)C(=O)N[C@H](CCCNC(=N)N)C(=O)N[C@H](Cc1c[nH]cn1)C(=O)N[C@H](Cc1c[nH]cn1)C(=O)N[C@H](CCCNC(=N)N)C(N)=O` [Ac-(D)Leu-(D)Gln-(D)Arg-(D)His-(D)His-(D)Arg-NH2] (Ac-[dL][dQ][dR][dH][dH][dR]-NH2), the IC50 under setting [1] worked out at 20 µM. Still for that read-out and setting: as for `CC[C@@H](C)[C@@H](NC(=O)[C@@H](CCCNC(=N)N)NC(=O)[C@@H](Cc1c[nH]c2ccccc12)NC(=O)[C@@H](CC(C)C)NC(C)=O)C(=O)N[C@H](Cc1c[nH]cn1)C(=O)N[C@H](CCCNC(=N)N)C(N)=O` [Ac-(D)Leu-(D)Trp-(D)Arg-(D)Ile-(D)His-(D)Arg-NH2] (Ac-[dL][dW][dR][dI][dH][dR]-NH2), the figure is 7.5 µM; as for `CC[C@@H](C)[C@@H](NC(=O)[C@@H](CCC(N)=O)NC(=O)[C@@H](CC(C)C)NC(C)=O)C(=O)N[C@H](Cc1c[nH]cn1)C(=O)N[C@H](CC(C)C)C(=O)N[C@H](Cc1c[nH]c2ccccc12)C(N)=O` [Ac-(D)Leu-(D)Gln-(D)Ile-(D)His-(D)Leu-(D)Trp-NH2] (Ac-[dL][dQ][dI][dH][dL][dW]-NH2), 30 µM.

In the case of `CC(=O)N[C@H](CC(C)C)C(=O)N[C@H](Cc1c[nH]c2ccccc12)C(=O)N[C@H](CCCNC(=N)N)C(=O)N[C@H](Cc1c[nH]cn1)C(=O)N[C@H](CC(C)C)C(=O)N[C@H](CCCNC(=N)N)C(N)=O` [Ac-(D)Leu-(D)Trp-(D)Arg-(D)His-(D)Leu-(D)Arg-NH2] (Ac-[dL][dW][dR][dH][dL][dR]-NH2), the IC50 under setting [1] was 16 µM. Regarding `CC[C@@H](C)[C@@H](NC(=O)[C@@H](Cc1c[nH]c2ccccc12)NC(=O)[C@@H](CC(C)C)NC(C)=O)C(=O)N[C@@H](C(=O)N[C@H](CC(C)C)C(=O)N[C@H](CCCNC(=N)N)C(N)=O)[C@H](C)CC` [Ac-(D)Leu-(D)Trp-(D)Ile-(D)Ile-(D)Leu-(D)Arg-NH2] (Ac-[dL][dW][dI][dI][dL][dR]-NH2), under setting [1], the IC50 amounted to 7.2 µM. In the case of `CC[C@@H](C)[C@@H](NC(=O)[C@@H](CCC(N)=O)NC(=O)[C@@H](CC(C)C)NC(C)=O)C(=O)N[C@@H](C(=O)N[C@H](CC(C)C)C(=O)N[C@H](CCCNC(=N)N)C(N)=O)[C@H](C)CC` [Ac-(D)Leu-(D)Gln-(D)Ile-(D)Ile-(D)Leu-(D)Arg-NH2] (Ac-[dL][dQ][dI][dI][dL][dR]-NH2), under setting [1], the IC50 was 20 µM. Still for that read-out and setting: as for `CC[C@@H](C)[C@@H](NC(=O)[C@@H](CCC(N)=O)NC(=O)[C@@H](CC(C)C)NC(C)=O)C(=O)N[C@H](Cc1c[nH]cn1)C(=O)N[C@H](Cc1c[nH]cn1)C(=O)N[C@H](Cc1c[nH]c2ccccc12)C(N)=O` [Ac-(D)Leu-(D)Gln-(D)Ile-(D)His-(D)His-(D)Trp-NH2] (Ac-[dL][dQ][dI][dH][dH][dW]-NH2), the figure is 27 µM.
